According to publication PMC6925188, “PBRM1 acts as a p53 lysine-acetylation reader to suppress renal tumor growth” (Nature Communications, 2019):

Experiments:
ACHN cells = test: Cell cycle analysis, ACHN shRNA knockdown cells; format: cell-based; design: Sub-G1: unit not given here; details: 50 μM
Protocol: Lysates were analyzed via immunoblots. f, g, h. ACHN control, p53 and p21 shRNA knockdown cells were harvested for […]
Representative data is shown i n g. […] Source data are provided as a Source

Ren-01 PBRM1 KO cells = test: Immunoblot of p53 targets, Ren-01 PBRM1 KO cells; format: cell-based; details: 50 μM etoposide
Protocol: (§1) The band intensity of indicated protein was measured with Bio-rad Image Lab 4.1, and the relative ratios were calculated over the signal intensity of Vinculin in the corresponding lanes. c–e. Nude mice xenograft analyses were performed with Ren-01 PBRM1 KO cells expressing GFP (left flank) or PBRM1 (right flank). Representative photographs of a mouse (c, top) and tumors (c, bottom). Tumors were excised and weighed, and data are presented as mean ± SEM (d). p-values were calculated using the paired two-tailed Student’s t-test. Tumors were stained for PBRM1 and p21 expression via IHC (e). Scale bar: 200 μm. f–h Nude mice xenograft analyses were performed with Ren-01 PBRM1 KO cells expressing wild-type PBRM1 (left flank) or the BD4* mutant PBRM1 (right flank). Tumors were excised and weighed, and data are presented as mean ± SEM (g). p-values were calculated using the paired two-tailed Student’s t-test. Representative photographs of a mouse (f, top) and tumors (f, bottom). Tumors were stained for PBRM1 and p21 expression via IHC analysis (h). Scale bar: 200 μm. Source data are provided as a Source Data file.
After washing with ice-cold PBS, cells were scraped on ice and centrifuged at 10,000 × g for 1 min at 4 °C. […]

SLR24 cells = test: Immunoblot of p53 targets, PBRM1-null SLR24 cells; format: cell-based; details: 50 μM etoposide
Protocol: as §1
(§2) After washing with ice-cold PBS, cells were scraped on ice and centrifuged at 10,000 × g for 1 min at 4 °C. For immunoblot analysis, cell pellets were lysed in 1% SDS containing a protease inhibitor cocktail followed by sonication with a FB50 sonic dismembrator (Fisher Scientific) at 20% amplitude for 15 s twice. After centrifuging for 10 min at 14,000 × g, the supernatants were combined with 5X SDS loading buffer (5% mercaptoethanol, 0.05% Bromophenol blue, 30% glycerol, 10% SDS, 250 mM Tris-HCl (pH 6.8)), boiled for 5 min and used in SDS-PAGE. After standard western blot procedures, the blots were developed using the ImageQuant LAS 4000 (GE healthcare Life Sciences) or ChemiDoc MP Imaging System (Bio-rad) with HyGLO™ Chemiluminescent HRP Detection Reagent (E2500, Denville Scientific) or Immobilon™ Western Chemiluminescent HRP Substrate (WBKLS0500, Millipore).

RCC4 cells = details: 100 μM etoposide
Protocol: Lysates were analyzed by immunoblots. c RCC4 cells with or without p53 KO were transfected with vector or Flag-PBRM1 at the indicated amounts. […] Cells were harvested for RT-qPCR (g) or ChIP followed by qPCR (h). […] Representative data is shown in i. Quantification of cell cycle phase is shown in j. Source data are provided as a Source Data file.
as §2, with “Millipore). […]” for “Millipore).”
the indicated times. Lysates were analyzed via immunoblots. b. […]
were analyzed by immunoblots. c. […]
Lysates were analyzed via immunoblots. e. […]
Lysates were analyzed via immunoblots. f, g, h. […]

**Q.** COc1cc([C@@H]2c3cc4c(cc3[C@@H](O[C@@H]3O[C@@H]5CO[C@@H](C)O[C@H]5[C@H](O)[C@H]3O)[C@H]3COC(=O)[C@H]23)OCO4)cc(OC)c1O [Etoposide] was tested. Which G0/G1 (ACHN cells; ACHN-sh-PBRM1#1, assay 1) did it give?
**A.** 10.9

**Q.** And the G2/M (ACHN cells; ACHN-sh-PBRM1#1, assay 1)?
**A.** 66.9

**Q.** And the S (ACHN cells; ACHN-sh-PBRM1#1, assay 1)?
**A.** 15.8

**Q.** And the Sub-G1 (ACHN cells; ACHN-sh-PBRM1#1, assay 1)?
**A.** 5.5

**Q.** And the G0/G1 (ACHN cells; ACHN-sh-PBRM1#1, assay 2)?
**A.** 15.3

**Q.** And the G2/M (ACHN cells; ACHN-sh-PBRM1#1, assay 2)?
**A.** 36.8

**Q.** And the S (ACHN cells; ACHN-sh-PBRM1#1, assay 2)?
**A.** 33.9

**Q.** What about the Sub-G1 (ACHN cells; ACHN-sh-PBRM1#1, assay 2) of the same molecule?
**A.** 12.3

**Q.** And the G0/G1 (ACHN cells; ACHN-sh-PBRM1#1, assay 3)?
**A.** 16.9

**Q.** And the G2/M (ACHN cells; ACHN-sh-PBRM1#1, assay 3)?
**A.** 39.4

**Q.** And the S (ACHN cells; ACHN-sh-PBRM1#1, assay 3)?
**A.** 35.3

**Q.** What about the Sub-G1 (ACHN cells; ACHN-sh-PBRM1#1, assay 3) of the same molecule?
**A.** 6.8

**Q.** What about the G0/G1 (ACHN cells; ACHN-sh-PBRM1#2, assay 1) of the same molecule?
**A.** 50.7

**Q.** What about the G2/M (ACHN cells; ACHN-sh-PBRM1#2, assay 1) of the same molecule?
**A.** 29.4

**Q.** What about the S (ACHN cells; ACHN-sh-PBRM1#2, assay 1) of the same molecule?
**A.** 17.3

**Q.** And the Sub-G1 (ACHN cells; ACHN-sh-PBRM1#2, assay 1)?
**A.** 1.2

**Q.** And the G0/G1 (ACHN cells; ACHN-sh-PBRM1#2, assay 2)?
**A.** 45.9

**Q.** And the G2/M (ACHN cells; ACHN-sh-PBRM1#2, assay 2)?
**A.** 20.7

**Q.** What about the S (ACHN cells; ACHN-sh-PBRM1#2, assay 2) of the same molecule?
**A.** 26.7

**Q.** What about the Sub-G1 (ACHN cells; ACHN-sh-PBRM1#2, assay 2) of the same molecule?
**A.** 5

**Q.** And the G0/G1 (ACHN cells; ACHN-sh-PBRM1#2, assay 3)?
**A.** 48.7

**Q.** What about the G2/M (ACHN cells; ACHN-sh-PBRM1#2, assay 3) of the same molecule?
**A.** 22.6

**Q.** What about the S (ACHN cells; ACHN-sh-PBRM1#2, assay 3) of the same molecule?
**A.** 24.8

**Q.** And the Sub-G1 (ACHN cells; ACHN-sh-PBRM1#2, assay 3)?
**A.** 1.6

**Q.** What about the G0/G1 (ACHN cells; ACHN-sh-SCR, assay 1) of the same molecule?
**A.** 54.8

**Q.** What about the G2/M (ACHN cells; ACHN-sh-SCR, assay 1) of the same molecule?
**A.** 26.5

**Q.** And the S (ACHN cells; ACHN-sh-SCR, assay 1)?
**A.** 16.1

**Q.** And the Sub-G1 (ACHN cells; ACHN-sh-SCR, assay 1)?
**A.** 1.5

**Q.** And the G0/G1 (ACHN cells; ACHN-sh-SCR, assay 2)?
**A.** 51.3

**Q.** What about the G2/M (ACHN cells; ACHN-sh-SCR, assay 2) of the same molecule?
**A.** 21.3

**Q.** What about the S (ACHN cells; ACHN-sh-SCR, assay 2) of the same molecule?
**A.** 25.2

**Q.** What about the Sub-G1 (ACHN cells; ACHN-sh-SCR, assay 2) of the same molecule?
**A.** 1.4

**Q.** What about the G0/G1 (ACHN cells; ACHN-sh-SCR, assay 3) of the same molecule?
**A.** 43.6

**Q.** And the G2/M (ACHN cells; ACHN-sh-SCR, assay 3)?
**A.** 27

**Q.** What about the S (ACHN cells; ACHN-sh-SCR, assay 3) of the same molecule?
**A.** 25.3

**Q.** And the Sub-G1 (ACHN cells; ACHN-sh-SCR, assay 3)?
**A.** 2.1

**Q.** What about the G0/G1 (ACHN cells; ACHN-sh-p21#1, assay 1) of the same molecule?
**A.** 40.5

**Q.** And the G2/M (ACHN cells; ACHN-sh-p21#1, assay 1)?
**A.** 38.3

**Q.** What about the S (ACHN cells; ACHN-sh-p21#1, assay 1) of the same molecule?
**A.** 18.7

**Q.** And the Sub-G1 (ACHN cells; ACHN-sh-p21#1, assay 1)?
**A.** 1.3

**Q.** What about the G0/G1 (ACHN cells; ACHN-sh-p21#1, assay 2) of the same molecule?
**A.** 47.7

**Q.** What about the G2/M (ACHN cells; ACHN-sh-p21#1, assay 2) of the same molecule?
**A.** 23.1

**Q.** And the S (ACHN cells; ACHN-sh-p21#1, assay 2)?
**A.** 27.2

**Q.** What about the Sub-G1 (ACHN cells; ACHN-sh-p21#1, assay 2) of the same molecule?
**A.** 1

**Q.** And the G0/G1 (ACHN cells; ACHN-sh-p21#1, assay 3)?
**A.** 48.6

**Q.** And the G2/M (ACHN cells; ACHN-sh-p21#1, assay 3)?
**A.** 22.6

**Q.** And the S (ACHN cells; ACHN-sh-p21#1, assay 3)?
**A.** 26

**Q.** What about the Sub-G1 (ACHN cells; ACHN-sh-p21#1, assay 3) of the same molecule?
**A.** 0.8

**Q.** What about the G0/G1 (ACHN cells; ACHN-sh-p21#2, assay 1) of the same molecule?
**A.** 14.3

**Q.** What about the G2/M (ACHN cells; ACHN-sh-p21#2, assay 1) of the same molecule?
**A.** 65.7

**Q.** And the S (ACHN cells; ACHN-sh-p21#2, assay 1)?
**A.** 15.1

**Q.** What about the Sub-G1 (ACHN cells; ACHN-sh-p21#2, assay 1) of the same molecule?
**A.** 4

**Q.** And the G0/G1 (ACHN cells; ACHN-sh-p21#2, assay 2)?
**A.** 11.9

**Q.** And the G2/M (ACHN cells; ACHN-sh-p21#2, assay 2)?
**A.** 48.4

**Q.** And the S (ACHN cells; ACHN-sh-p21#2, assay 2)?
**A.** 31.1

**Q.** What about the Sub-G1 (ACHN cells; ACHN-sh-p21#2, assay 2) of the same molecule?
**A.** 6.9

**Q.** What about the G0/G1 (ACHN cells; ACHN-sh-p21#2, assay 3) of the same molecule?
**A.** 14.7

**Q.** And the G2/M (ACHN cells; ACHN-sh-p21#2, assay 3)?
**A.** 42.4

**Q.** And the S (ACHN cells; ACHN-sh-p21#2, assay 3)?
**A.** 35.8

**Q.** What about the Sub-G1 (ACHN cells; ACHN-sh-p21#2, assay 3) of the same molecule?
**A.** 5.3

**Q.** What about the G0/G1 (ACHN cells; ACHN-sh-p53, assay 1) of the same molecule?
**A.** 6.3

**Q.** And the G2/M (ACHN cells; ACHN-sh-p53, assay 1)?
**A.** 68.3

**Q.** And the S (ACHN cells; ACHN-sh-p53, assay 1)?
**A.** 16.5

**Q.** And the Sub-G1 (ACHN cells; ACHN-sh-p53, assay 1)?
**A.** 6.2

**Q.** And the G0/G1 (ACHN cells; ACHN-sh-p53, assay 2)?
**A.** 11.6

**Q.** And the G2/M (ACHN cells; ACHN-sh-p53, assay 2)?
**A.** 30

**Q.** And the S (ACHN cells; ACHN-sh-p53, assay 2)?
**A.** 34.2

**Q.** What about the Sub-G1 (ACHN cells; ACHN-sh-p53, assay 2) of the same molecule?
**A.** 20.3

**Q.** And the G0/G1 (ACHN cells; ACHN-sh-p53, assay 3)?
**A.** 10.6

**Q.** And the G2/M (ACHN cells; ACHN-sh-p53, assay 3)?
**A.** 39

**Q.** And the S (ACHN cells; ACHN-sh-p53, assay 3)?
**A.** 34.6

**Q.** And the Sub-G1 (ACHN cells; ACHN-sh-p53, assay 3)?
**A.** 11.3

**Q.** And the “expression of p53 downstream targets after DNA damage, wild-type vs BD4* PBRM1” value (Ren-01 PBRM1 KO cells)?
**A.** rescued by wild-type but not BD4* mutant PBRM1

**Q.** And the “p21, PUMA and MDM2 expression after DNA damage, wild-type vs BD4* PBRM1 or GFP” value (SLR24 cells; SLR24)?
**A.** significantly induced by wild-type but not BD4* mutant PBRM1 or GFP

**Q.** What about the “p21 or PUMA induction” value (SLR24 cells; SLR24 cells) of the same molecule?
**A.** barely

**Q.** What about the “p21 and PUMA induction with PBRM1-BD4*” value (SLR24 cells; SLR24 expressing PBRM1-BD4*) of the same molecule?
**A.** failed to induce their expression

**Q.** And the “p21 and PUMA induction with PBRM1-wt” value (SLR24 cells; SLR24 expressing PBRM1-wt, all time points)?
**A.** strongly induced

**Q.** And the “p21 enhancement by PBRM1 BD4* mutant after p53 activation” value (RCC4 cells)?
**A.** failed to enhance p21 expression
